Reference: ChEMBL document CHEMBL4619707, “Synthesis and biological investigation of triazolopyridinone derivatives as potential multireceptor atypical antipsychotics” (Bioorg Med Chem Lett, 2020)
≈ marks a conversion by molar mass, not a printed value. Calls of active or inactive are those of the source. No cut-off for these calls is given here.

Experiments:
[1] = biological target: 5-hydroxytryptamine receptor 2A (Homo sapiens, UniProt P28223); test: Antagonist activity at 5HT2A receptor (unknown origin) by HTRF cAMP assay; assay type: functional
[2] = biological target: T1, 5-hydroxytryptamine receptor 1A (Homo sapiens, UniProt P08908); test: Agonist activity at 5HT1A receptor (unknown origin) by calcium-dye based FLIPR assay; assay type: functional
T1 sequence (P08908 whole entry): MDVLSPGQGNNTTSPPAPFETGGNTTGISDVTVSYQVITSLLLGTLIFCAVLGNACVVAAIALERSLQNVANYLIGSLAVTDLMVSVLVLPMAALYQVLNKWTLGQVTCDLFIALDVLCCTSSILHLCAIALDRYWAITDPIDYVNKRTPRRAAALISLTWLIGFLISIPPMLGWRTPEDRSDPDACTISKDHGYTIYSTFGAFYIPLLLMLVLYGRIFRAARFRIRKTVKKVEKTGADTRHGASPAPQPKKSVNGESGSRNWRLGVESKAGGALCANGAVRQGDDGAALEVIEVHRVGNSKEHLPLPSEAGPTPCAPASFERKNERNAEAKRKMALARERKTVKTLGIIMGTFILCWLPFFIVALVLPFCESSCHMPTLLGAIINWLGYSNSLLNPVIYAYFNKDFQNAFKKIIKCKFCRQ

[3] = tested on: HEK293; test: Cytotoxicity against human HEK293 cells assessed as reduction in cell viability; assay type: cell-based
[4] = biological target: T2, D(2) dopamine receptor (Homo sapiens, UniProt P14416); test: Agonist activity at D2 receptor (unknown origin) relative to 10 uM dopamine
[5] = biological target: T2, D(2) dopamine receptor; test: Agonist activity at D2 receptor (unknown origin)
[6] = Cytotoxicity against human Chang cells assessed as reduction in cell viability; assay type: cell-based
[7] = biological target: Muscarinic acetylcholine receptor M3 (Homo sapiens, UniProt P20309); test: Antagonist activity at muscarinic M3 receptor (unknown origin); assay type: ADME
[8] = tested on: Mus musculus; test: Antipsychotic activity in po dosed mouse assessed as inhibition of phencyclidine-induced hyperlocomotion administered with compound after phencyclidine challenge measured for 75 mins; assay type: functional, organism-based
[9] = biological target: T3, 5-hydroxytryptamine receptor 2C (Homo sapiens, UniProt P28335); test: Antagonist activity at 5-HT2C receptor (unknown origin)
T3 sequence (P28335 whole entry): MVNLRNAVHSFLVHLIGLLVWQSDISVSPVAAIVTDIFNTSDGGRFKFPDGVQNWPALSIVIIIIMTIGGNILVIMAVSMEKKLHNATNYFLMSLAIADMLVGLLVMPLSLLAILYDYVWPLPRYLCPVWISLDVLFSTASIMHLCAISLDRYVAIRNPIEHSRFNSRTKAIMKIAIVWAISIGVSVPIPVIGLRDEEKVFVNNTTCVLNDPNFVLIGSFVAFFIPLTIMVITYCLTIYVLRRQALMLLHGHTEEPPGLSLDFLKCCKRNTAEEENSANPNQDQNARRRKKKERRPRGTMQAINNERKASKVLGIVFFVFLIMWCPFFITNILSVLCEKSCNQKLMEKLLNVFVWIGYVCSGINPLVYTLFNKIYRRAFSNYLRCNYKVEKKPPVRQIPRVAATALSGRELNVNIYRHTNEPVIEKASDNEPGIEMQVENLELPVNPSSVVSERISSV

[10] = Toxicity in mouse assessed as sedation by measuring spontaneous locomotor activity at 3 to 10 mg/kg, po; assay type: organism-based; conditions: in vivo
[11] = tested on: Mus musculus; test: Antipsychotic activity in po dosed ICR mouse assessed as inhibition of quipazine-induced head-twitch response administered with compound after quipazine administration measured for 15 mins; assay type: functional, organism-based
[12] = biological target: Voltage-gated inwardly rectifying potassium channel KCNH2 (Homo sapiens, UniProt Q12809); test: Inhibition of human ERG
[13] = tested on: Mus musculus; test: Antipsychotic activity in ICR mouse assessed as inhibition of quipazine-induced head-twitch response at 0.3 mg/kg, po administered with compound after quipazine administration measured for 15 mins; assay type: functional, organism-based
[14] = biological target: Histamine H1 receptor (Homo sapiens, UniProt P35367); test: Antagonist activity at H1 receptor (unknown origin); assay type: ADME
[15] = Toxicity in mouse assessed as sedation by measuring spontaneous locomotor activity at 0.3 mg/kg, po; assay type: organism-based; conditions: in vivo
[16] = biological target: Sodium-dependent serotonin transporter (Homo sapiens) (UniProt P31645); conditions: 400 nM
Sequence of Sodium-dependent serotonin transporter (Homo sapiens) (P31645 whole entry, looked up): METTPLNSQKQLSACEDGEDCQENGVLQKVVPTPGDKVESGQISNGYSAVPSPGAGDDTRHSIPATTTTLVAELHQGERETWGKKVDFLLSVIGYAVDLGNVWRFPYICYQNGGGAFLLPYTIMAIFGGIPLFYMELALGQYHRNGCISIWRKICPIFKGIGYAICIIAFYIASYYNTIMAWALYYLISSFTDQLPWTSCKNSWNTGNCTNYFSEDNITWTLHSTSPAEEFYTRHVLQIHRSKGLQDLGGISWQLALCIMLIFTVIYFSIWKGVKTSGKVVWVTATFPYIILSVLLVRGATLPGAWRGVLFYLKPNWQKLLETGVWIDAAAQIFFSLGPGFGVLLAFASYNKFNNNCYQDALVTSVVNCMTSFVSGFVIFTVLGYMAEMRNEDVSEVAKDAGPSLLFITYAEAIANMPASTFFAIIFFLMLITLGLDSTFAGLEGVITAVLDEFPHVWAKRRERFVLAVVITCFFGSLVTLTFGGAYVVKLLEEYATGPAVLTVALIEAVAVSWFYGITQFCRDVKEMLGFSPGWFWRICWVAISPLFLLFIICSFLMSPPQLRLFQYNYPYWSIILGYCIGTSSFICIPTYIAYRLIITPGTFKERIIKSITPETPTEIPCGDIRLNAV
Description: Antagonist activity at SERT receptor (unknown origin) at 400 nM by fluorescence based assay relative to control

Sequence of 5-hydroxytryptamine receptor 2A (P28223 whole entry): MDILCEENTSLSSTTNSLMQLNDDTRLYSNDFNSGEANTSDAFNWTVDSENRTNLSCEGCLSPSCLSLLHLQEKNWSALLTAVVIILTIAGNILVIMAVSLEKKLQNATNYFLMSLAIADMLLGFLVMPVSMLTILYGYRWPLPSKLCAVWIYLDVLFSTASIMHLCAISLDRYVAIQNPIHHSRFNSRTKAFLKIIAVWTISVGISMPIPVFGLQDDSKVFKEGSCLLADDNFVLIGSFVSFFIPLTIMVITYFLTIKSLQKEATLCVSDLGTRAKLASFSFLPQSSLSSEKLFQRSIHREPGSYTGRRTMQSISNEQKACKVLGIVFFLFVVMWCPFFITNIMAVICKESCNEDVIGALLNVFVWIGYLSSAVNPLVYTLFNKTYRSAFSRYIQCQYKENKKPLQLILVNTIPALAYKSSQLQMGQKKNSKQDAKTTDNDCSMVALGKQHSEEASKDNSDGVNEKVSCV
T2 sequence (P14416 whole entry): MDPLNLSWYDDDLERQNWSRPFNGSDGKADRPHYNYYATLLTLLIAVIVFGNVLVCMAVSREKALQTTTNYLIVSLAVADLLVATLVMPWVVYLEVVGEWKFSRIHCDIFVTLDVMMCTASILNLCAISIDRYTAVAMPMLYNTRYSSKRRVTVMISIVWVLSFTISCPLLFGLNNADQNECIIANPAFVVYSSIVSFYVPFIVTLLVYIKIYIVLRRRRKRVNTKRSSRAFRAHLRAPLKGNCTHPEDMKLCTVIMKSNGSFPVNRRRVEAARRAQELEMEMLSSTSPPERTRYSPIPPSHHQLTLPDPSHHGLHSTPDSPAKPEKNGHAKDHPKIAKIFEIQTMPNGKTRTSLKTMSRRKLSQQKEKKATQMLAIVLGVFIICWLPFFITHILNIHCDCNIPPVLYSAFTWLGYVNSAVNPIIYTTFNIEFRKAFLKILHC
Sequence of Muscarinic acetylcholine receptor M3 (P20309 whole entry): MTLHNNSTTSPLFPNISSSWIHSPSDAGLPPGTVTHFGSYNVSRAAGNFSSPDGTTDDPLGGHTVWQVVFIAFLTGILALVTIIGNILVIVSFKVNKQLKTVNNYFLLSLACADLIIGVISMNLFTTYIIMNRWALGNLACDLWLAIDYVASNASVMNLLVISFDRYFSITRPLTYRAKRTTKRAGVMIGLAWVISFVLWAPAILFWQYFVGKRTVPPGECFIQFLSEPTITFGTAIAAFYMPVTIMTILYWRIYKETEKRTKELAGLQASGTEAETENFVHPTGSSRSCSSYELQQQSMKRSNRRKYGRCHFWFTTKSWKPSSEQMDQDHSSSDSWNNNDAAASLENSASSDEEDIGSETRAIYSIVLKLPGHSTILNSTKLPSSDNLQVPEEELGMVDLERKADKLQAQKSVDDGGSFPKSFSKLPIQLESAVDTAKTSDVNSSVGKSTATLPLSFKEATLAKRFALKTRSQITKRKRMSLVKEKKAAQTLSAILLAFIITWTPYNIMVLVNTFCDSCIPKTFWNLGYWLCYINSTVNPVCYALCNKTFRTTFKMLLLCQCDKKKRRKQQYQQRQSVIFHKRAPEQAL
Sequence of Voltage-gated inwardly rectifying potassium channel KCNH2 (Q12809 whole entry): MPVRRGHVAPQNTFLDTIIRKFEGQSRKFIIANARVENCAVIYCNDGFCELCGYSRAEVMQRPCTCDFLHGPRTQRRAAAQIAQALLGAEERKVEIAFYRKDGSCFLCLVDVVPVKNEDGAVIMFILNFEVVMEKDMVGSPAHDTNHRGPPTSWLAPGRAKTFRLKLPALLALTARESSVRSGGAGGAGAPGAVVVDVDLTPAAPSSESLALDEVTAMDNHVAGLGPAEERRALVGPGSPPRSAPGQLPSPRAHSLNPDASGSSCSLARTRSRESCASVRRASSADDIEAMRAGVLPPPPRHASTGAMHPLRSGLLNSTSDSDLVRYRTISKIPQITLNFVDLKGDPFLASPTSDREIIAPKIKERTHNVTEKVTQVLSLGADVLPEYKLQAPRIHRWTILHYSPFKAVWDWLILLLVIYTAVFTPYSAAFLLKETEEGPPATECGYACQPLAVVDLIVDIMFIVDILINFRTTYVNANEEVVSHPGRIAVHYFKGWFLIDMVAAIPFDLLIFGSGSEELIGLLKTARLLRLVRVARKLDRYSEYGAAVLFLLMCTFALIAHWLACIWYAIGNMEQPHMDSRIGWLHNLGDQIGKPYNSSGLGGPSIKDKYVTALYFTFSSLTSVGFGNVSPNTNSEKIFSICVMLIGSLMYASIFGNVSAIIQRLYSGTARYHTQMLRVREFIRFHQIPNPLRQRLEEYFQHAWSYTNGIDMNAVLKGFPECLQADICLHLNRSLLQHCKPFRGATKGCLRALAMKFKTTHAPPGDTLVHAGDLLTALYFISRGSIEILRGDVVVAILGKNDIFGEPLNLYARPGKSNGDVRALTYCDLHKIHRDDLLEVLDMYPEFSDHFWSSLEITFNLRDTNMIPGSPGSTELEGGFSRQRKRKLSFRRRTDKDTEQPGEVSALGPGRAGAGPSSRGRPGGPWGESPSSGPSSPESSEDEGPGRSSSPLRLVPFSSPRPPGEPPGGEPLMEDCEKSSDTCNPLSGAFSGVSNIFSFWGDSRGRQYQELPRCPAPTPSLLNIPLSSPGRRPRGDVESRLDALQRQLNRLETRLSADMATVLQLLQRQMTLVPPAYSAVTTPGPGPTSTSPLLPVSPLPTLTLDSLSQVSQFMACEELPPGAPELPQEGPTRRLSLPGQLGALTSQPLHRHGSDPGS
Sequence of Histamine H1 receptor (P35367 whole entry): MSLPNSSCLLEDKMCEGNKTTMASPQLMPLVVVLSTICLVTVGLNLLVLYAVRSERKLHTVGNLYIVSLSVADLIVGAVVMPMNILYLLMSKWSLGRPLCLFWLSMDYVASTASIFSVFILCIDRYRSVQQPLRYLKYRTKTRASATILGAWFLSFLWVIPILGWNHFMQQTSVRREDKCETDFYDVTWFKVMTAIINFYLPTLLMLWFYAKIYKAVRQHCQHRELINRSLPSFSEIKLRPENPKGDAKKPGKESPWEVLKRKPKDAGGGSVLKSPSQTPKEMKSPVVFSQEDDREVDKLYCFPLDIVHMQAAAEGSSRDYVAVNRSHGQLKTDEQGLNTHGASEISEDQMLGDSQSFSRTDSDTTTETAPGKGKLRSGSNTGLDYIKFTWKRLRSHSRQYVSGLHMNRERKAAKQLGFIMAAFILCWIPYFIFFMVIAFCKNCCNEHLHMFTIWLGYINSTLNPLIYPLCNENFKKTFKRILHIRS

Row | SMILES | IC50 [1] [nM] | EC50 [2] [nM] | also measured
1 | O=c1n(CCCCN2CCN(c3cccc4scnc34)CC2)nc2ccccn12 | 2730 | 2.8 | –
2 | O=c1n(CCCCN2CCN(c3cccc4sccc34)CC2)nc2c(Cl)cccn12 | 368 | 12.1 | –
3 | O=c1n(CCCCN2CCN(c3cccc4sc(F)cc34)CC2)nc2c(F)cccn12 | 1070 | 1.53 | –
4 | O=c1n(CCCCN2CCN(c3cccc4sccc34)CC2)nc2c(F)cc(F)cn12 | 27 | 1.2 | –
5 | O=c1n(CCCCN2CCN(c3cccc4sccc34)CC2)nc2ccc(Cl)cn12 | 144 | 9.5 | –
6 | Cc1nc2n(c(=O)c1CCN1CCC(c3noc4cc(F)ccc34)CC1)CCCC2 [RISPERIDONE] | – | – | IC50 [3]: > 600 µg/mL; Emax [4]: < 20%; EC50 [5]: Not Active; IC50 [6]: 239 µg/mL (≈ 582 µM)
7 | O=c1n(CCCCN2CCN(c3cccc4sccc34)CC2)nc2ccccn12 | 34.2 | 1.7 to 1.8 | IC50 [7]: > 10000 nM; inhibition [8]: Dose-dependent effect; IC50 [3]: 108 µg/mL (≈ 265 µM); IC50 [9]: > 10000 nM; Activity [10]: Toxic; inhibition [11]: Dose-dependent effect; IC50 [12]: 3010 nM; inhibition [13]: Active; IC50 [14]: 88.5 nM; Activity [15]: Non-Toxic
8 | N#Cc1ccc2nn(CCCCN3CCN(c4cccc5sccc45)CC3)c(=O)n2c1 | 11 | 9.7 | IC50 [7]: > 10000 nM; IC50 [9]: 3290 nM; IC50 [12]: 1050 nM; IC50 [14]: 76.6 nM
9 | COc1cccc2nn(CCCCN3CCN(c4cccc5sccc45)CC3)c(=O)n12 | 13 | 2 | inhibition [13]: Active
10 | O=c1n(CCCCN2CCN(c3cccc4sccc34)CC2)nc2c(Br)cccn12 | 131 | 7 | –
11 | N#Cc1cccc2nn(CCCCN3CCN(c4cccc5sccc45)CC3)c(=O)n12 | 104 | 20.2 | –
12 | O=c1n(CCCCN2CCN(c3cccc4sccc34)CC2)nc2c(Cl)cc(Cl)cn12 | 652 | 0.1 | –
13 | O=c1n(CCCCN2CCN(c3cccc4scnc34)CC2)nc2c(F)cccn12 | 77.8 | 0.1 | –
14 | O=c1n(CCCCN2CCN(c3cccc4sccc34)CC2)nc2c(F)cccn12 | 35.5 | 1.8 | IC50 [7]: > 10000 nM; IC50 [9]: 2100 nM; IC50 [12]: 2200 nM; inhibition [13]: Active
15 | O=c1n(CCCCN2CCN(c3cccc4sccc34)CC2)nc2ccc(F)cn12 | 46.3 | 0.1 | –
16 | O=c1n(CCCCN2CCC(c3cc(F)cc4oncc34)CC2)nc2ccccn12 | 15.2 | > 10000 | –
17 | O=c1n(CCCN2CCN(c3cccc(Cl)c3)CC2)nc2ccccn12 [TRAZODONE] | – | – | Emax [4]: < 20%; EC50 [5]: Not Active
18 | N#Cc1ccn2c(=O)n(CCCCN3CCN(c4cccc5sccc45)CC3)nc2c1 | 726 | 5.9 | –
19 | N#Cc1cccn2c(=O)n(CCCCN3CCN(c4cccc5sccc45)CC3)nc12 | 155 | 1.4 | –
20 | O=C1CCc2ccc(OCCCCN3CCN(c4cccc(Cl)c4Cl)CC3)cc2N1 | – | – | inhibition [16]: 21%; inhibition [13]: Active
21 | COc1cccn2c(=O)n(CCCCN3CCN(c4cccc5sccc45)CC3)nc12 | 85.2 | 2.2 | –
22 | O=c1ccc2ccc(OCCCCN3CCN(c4cccc5sccc45)CC3)cc2[nH]1 [BREXPIPRAZOLE] | – | – | IC50 [3]: 19.1 µg/mL (≈ 44.1 µM); Emax [4]: 29%; EC50 ([5]; read-out: EC50): 6.3 nM; IC50 [6]: 44.2 µg/mL (≈ 102 µM)
